Source: paper PMC7495481, “Sequence specificity analysis of the SETD2 protein lysine methyltransferase and discovery of a SETD2 super-substrate” (Communications Biology, 2020)
Where “and” joins values, the source holds several entries; their conditions need not be identical. Equal entries are not always repeated.

How the values were obtained:
Type in all cases: biochemical
SETD2 [1] = molecular target: T1, SETD2 (Homo sapiens, UniProt Q9BYW2); experiment: Methylation of purified ssK36 and H3K36 peptides, Tricine gel autoradiography; details: 20 µM peptide, 6 µM SETD2, 0.76 µM AdoMet, 3 h, 25 °C; densitometry, three independent experiments, ± SD
T1 construct: SETD2 catalytic SET domain (amino acids 1347–1711, UniProt No: Q9BYW2); made in house; host or cells: E. coli
T1 sequence (Q9BYW2 1347-1711): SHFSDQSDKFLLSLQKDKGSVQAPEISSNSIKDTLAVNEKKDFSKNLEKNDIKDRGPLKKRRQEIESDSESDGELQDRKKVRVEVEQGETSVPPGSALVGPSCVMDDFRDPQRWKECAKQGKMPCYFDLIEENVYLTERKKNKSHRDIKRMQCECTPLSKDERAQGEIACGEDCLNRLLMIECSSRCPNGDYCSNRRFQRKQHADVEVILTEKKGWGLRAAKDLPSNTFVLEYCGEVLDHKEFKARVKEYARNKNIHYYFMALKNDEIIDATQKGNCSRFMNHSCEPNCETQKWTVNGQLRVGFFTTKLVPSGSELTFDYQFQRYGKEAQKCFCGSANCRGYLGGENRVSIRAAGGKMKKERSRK
Source text: To compare the methylation rates of the H3K36 and super-substrate peptides directly, purified ssK36 and H3K36 were methylated by SETD2, resolved on a Tricine gel and the methylation activity captured by autoradiography (Fig. 2b). To allow direct comparison of the methylation levels of both substrates, methylated ssK36 was loaded in different dilutions on the same gel.
(§1) The H3K36 (27–43) and the H3K36M (27–43) peptides were purchased from Intavis AG (Köln, Germany) and the ssK36 peptide (29–43) and the ssK36M peptide (29–43) were from Innovative Peptide Solutions (Berlin, Germany). If not indicated otherwise, peptide methylation reactions were performed using 20 µM peptide and 6 µM SETD2 in 20 µl methylation buffer supplemented with 0.76 µM radioactive labeled AdoMet (PerkinElmer) for 3 h at 25 °C. The reactions were halted by the addition of Tricine-SDS-PAGE loading buffer and incubation for 5 min at 95 °C. Afterward the samples were separated by Tricine-SDS-PAGE, which was followed by the incubation of the gel in amplify NAMP100V (GE Healthcare) for 45 min on a shaker and drying of the gel for 2 h at 55 °C in vacuum. The signals of the transferred radioactive labeled methyl groups were detected by autoradiography using a hyperfilm^TM high performance autoradiography film (GE Healthcare) at −80 °C in the dark. […]

SETD2 [2] = molecular target: T1, SETD2; experiment: Peptide SPOT array target lysine methylation of selected non-histone peptides (Fig. 3b); details: Exp1–Exp3, 3–6 µM SETD2, 0.76 µM AdoMet, 60 min, pH 9, listed as DS
SETD2 [3] = molecular target: T1, SETD2; experiment: Steady-state peptide methylation kinetics (Michaelis-Menten); details: 20–320 µM peptide; Michaelis-Menten fit; two independent experiments
Description: To further characterize the methylation kinetics of the super-substrate peptide, steady-state methylation experiments were performed using the super-substrate peptide in different concentrations ranging from 20 to 320 µM (Supplementary Fig. 3a). […] To further study the difference in peptide binding, inhibition of SETD2 by ssK36M and H3K36M inhibitor peptides was investigated (Supplementary Fig. 3b and c).
as §1, with “Afterward the samples were separated by Tricine-SDS-PAGE, which was followed by the incubation of the gel in amplify NAMP100V (GE Healthcare) for 45 min on a shaker and drying of the gel for 2 h at 55 °C in vacuum.” left out
Multiple turnover kinetics were determined using variable peptide concentrations (20–320 µM). […]

fold more efficient methylation of ssK36 than wild type H3K36 peptide (SETD2 [1]): 50 ± 4 fold
Relative methylation signal, Average (SETD2 [2]): 0.95 and 0.9901
Km (SETD2 [3]): 45 µM
Sequence: APRFGGVKRPNRYRP [ssK36, super-substrate peptide with four amino acid exchanges (A31R, T32F, K37R, H39N)]
